According to patent US20250136570A1 (Tango Therapeutics, Inc., priority 2021, published 2025):

How the values were obtained:
Recombinant HDAC1 = Recombinant HDAC1 (Homo sapiens (Human), UniProt Q13547); assay: HDAC1 inhibition, Fluor de Lys fluorescent enzyme assay; format: biochemical; conditions: 3 hours pre-incubation at room temp; 6 nM enzyme; 16 μM Fluor de Lys substrate; duplicate
Description: (§1) Recombinant HDAC1 (cat #: 50051) and HDAC3/NCor2 (cat #: 50003) enzymes were purchased from BPS Bioscience (San Diego, CA, US). Assay reagents for the detection of HDAC enzyme activity (Fluor de Lys®—Green substrate and Developer kits) were purchased from Enzo Life Science (Farmingdale, NY, US). Plates used to conduct the enzyme reaction were Proxiplate-384 (cat #: 6008280) Plus from PerkinElmer (Waltham, MA, US). TSA, an HDAC inhibitor, was purchased from Enzo Life Science (cat #BML-GR309-9090) The remainder of the reagents used to prepare the assay buffer were purchased from Sigma-Aldrich (St Louis, MO, US). Unless stated otherwise, HDAC1 and 3 assays were conducted in 50 mM Tris buffer, pH 8, 137 mM NaCl, 2.7 mM KCl, 0.01% BSA.
(§2) IC50 determination for HDAC1 and HDAC3—Prior to adding reagents, 50 nL/well of compound were added to Proxiplates using an Echo dispenser instrument (Beckman Coulter, CA, US). After addition of compound, 2.5 μL/well of 2× enzyme solution was added and the enzyme was pre-incubated with compound for 3 hours at room temp. (˜22° C.). After the pre-incubation period, the enzyme reaction was initiated by adding 2.5 μL/well of 2× Fluor de Lys® substrate solution. The assay reaction was stopped after one hour by adding 5 μl/well of a 0.66× Developer solution containing TSA (3.2 μM). The final product of the enzyme reaction was read using a Spectramax plate reader instrument (Molecular Devices, CA, US) using a fluorescent readout (Ex 360 nm/Em 460 nm). The final enzyme concentrations in the assay buffer for HDAC1 and 3 were 6 and 1.2 nM, respectively. The final Fluor de Lys® substrate concentration in the assay buffer was 16 μM for all HDAC enzymes. IC50 values were determined using the following equation: […]
(§3) Where Efree and Eo are the free and total amount of HDAC enzyme in the reaction mixture, n is the hill coefficient, I is the free inhibitor concentration, and IC50 is the measure of the potency equivalent to the inhibitor concentration that leads to a 50% occupancy of the total enzyme. Each data was generated in duplicate.

HDAC3/NCor2 = HDAC3/NCor2 (Homo sapiens (Human), UniProt O15379); assay: HDAC3 inhibition, Fluor de Lys fluorescent enzyme assay; format: biochemical; conditions: 3 hours pre-incubation at room temp; 1.2 nM enzyme; 16 μM Fluor de Lys substrate; duplicate
HDAC3/NCor2, sequence (O15379 whole entry): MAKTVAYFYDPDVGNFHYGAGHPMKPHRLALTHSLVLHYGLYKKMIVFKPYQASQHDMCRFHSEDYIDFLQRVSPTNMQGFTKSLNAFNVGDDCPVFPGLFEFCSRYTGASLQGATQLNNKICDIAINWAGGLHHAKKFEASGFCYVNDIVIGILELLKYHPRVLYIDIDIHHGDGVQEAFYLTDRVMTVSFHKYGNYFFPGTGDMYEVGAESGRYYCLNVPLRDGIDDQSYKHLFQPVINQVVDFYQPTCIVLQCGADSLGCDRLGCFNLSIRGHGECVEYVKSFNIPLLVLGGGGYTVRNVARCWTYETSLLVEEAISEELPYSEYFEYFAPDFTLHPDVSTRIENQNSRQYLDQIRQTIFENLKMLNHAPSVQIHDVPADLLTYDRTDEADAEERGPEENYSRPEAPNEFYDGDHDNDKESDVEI
HDAC3/NCor2, sequence (Q9Y618 395-489 partner): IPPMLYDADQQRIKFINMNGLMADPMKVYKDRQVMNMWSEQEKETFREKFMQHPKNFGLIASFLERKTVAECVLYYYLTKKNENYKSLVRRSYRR
Description: as §1, §2, §3

Recombinant HDAC1, sequence (Q13547 whole entry): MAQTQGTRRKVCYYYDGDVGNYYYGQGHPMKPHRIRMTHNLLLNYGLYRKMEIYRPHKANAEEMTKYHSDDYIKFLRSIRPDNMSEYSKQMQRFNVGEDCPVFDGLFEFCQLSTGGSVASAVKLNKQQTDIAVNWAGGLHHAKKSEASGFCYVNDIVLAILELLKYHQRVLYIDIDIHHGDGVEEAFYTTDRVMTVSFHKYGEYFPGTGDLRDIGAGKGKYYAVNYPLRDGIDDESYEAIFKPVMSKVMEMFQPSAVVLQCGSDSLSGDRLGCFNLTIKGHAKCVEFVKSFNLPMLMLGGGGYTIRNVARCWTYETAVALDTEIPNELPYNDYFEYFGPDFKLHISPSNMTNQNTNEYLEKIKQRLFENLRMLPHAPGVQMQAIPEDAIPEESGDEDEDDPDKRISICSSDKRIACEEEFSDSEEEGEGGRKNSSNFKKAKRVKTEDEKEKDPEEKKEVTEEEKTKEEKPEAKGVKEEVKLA

IC50 (Recombinant HDAC1)	IC50 (HDAC3/NCor2)	Compound
< 0.1 µM	0.5 to 2 µM	COCCOCc1ccc(S(=N)(=O)c2ccc(C(=O)Nc3cc(-c4ccc(F)cc4)ccc3N)cc2)cn1 (stereo not shown) [Compound 246, N-[2-amino-5-(4-fluorophenyl)phenyl]-4-[[6-(2-methoxyethoxymethyl)-3-pyridyl]sulfonimidoyl]benzamide]
< 0.1 µM	0.5 to 2 µM	N=S(=O)(c1ccccn1)c1ccc(C(=O)Nc2cc(-c3ccc(F)cc3)ccc2N)cn1 (stereo not shown) [Compound 175, N-[2-amino-5-(4-fluorophenyl)phenyl]-6-(2-pyridylsulfonimidoyl)pyridine-3-carboxamide]
< 0.1 µM	0.5 to 2 µM	COc1ccncc1S(=N)(=O)c1ccc(C(=O)Nc2cc(-c3ccc(F)cc3)ccc2N)cc1 (stereo not shown) [Compound 240, N-[2-amino-5-(4-fluorophenyl)phenyl]-4-[(4-methoxy-3-pyridyl)sulfonimidoyl]benzamide]
< 0.1 µM	0.5 to 2 µM	CCN=S(C)(=O)c1ccc(C(=O)Nc2cc(-c3cccs3)ccc2N)cc1 (stereo not shown) [Compound 141, N-[2-amino-5-(2-thienyl)phenyl]-4-(N-ethyl-S-methyl-sulfonimidoyl)benzamide]
< 0.1 µM	0.5 to 2 µM	N=S(=O)(c1ccc(C(=O)Nc2cc(-c3cccnc3)ccc2N)cc1)C1CC1 (stereo not shown) [Compound 116, N-[2-amino-5-(3-pyridyl)phenyl]-4-(cyclopropylsulfonimidoyl)benzamide]
< 0.1 µM	0.5 to 2 µM	N=S(=O)(c1ccc(C(=O)Nc2cc(-c3ccc(F)cc3)ccc2N)cc1)c1ccccn1 (stereo not shown) [Compound 166, N-[2-amino-5-(4-fluorophenyl)phenyl]-4-(2-pyridylsulfonimidoyl)benzamide]
< 0.1 µM	0.5 to 2 µM	N=[S@@](=O)(c1ccc(C(=O)Nc2cc(-c3ccc(F)cc3)ccc2N)cc1)c1ccccn1 (single isomer, unassigned) [Compound 212]
< 0.1 µM	0.5 to 2 µM	CS(=O)(=NC#N)c1ccc(C(=O)Nc2cc(-c3cccs3)ccc2N)cc1 (stereo not shown) [Compound 153, N-[2-amino-5-(2-thienyl)phenyl]-4-(N-cyano-S-methyl-sulfonimidoyl)benzamide]
< 0.1 µM	0.5 to 2 µM	CS(=N)(=O)c1ccc(C(=O)Nc2cc(-c3ccsc3)ccc2N)cc1 (stereo not shown) [Compound 249, N-[2-amino-5-(3-thienyl)phenyl]-4-(methylsulfonimidoyl)benzamide]
< 0.1 µM	0.5 to 2 µM	CS(=N)(=O)c1cc2ccc(C(=O)Nc3cc(-c4ccc(F)cc4)ccc3N)cc2o1 (stereo not shown) [Compound 187, N-[2-amino-5-(4-fluorophenyl)phenyl]-2-(methylsulfonimidoyl)benzofuran-6-carboxamide]
< 0.1 µM	0.5 to 2 µM	N=S(=O)(c1ccc(C(=O)Nc2cc(-c3cccs3)ccc2N)cc1)C1CC1 (stereo not shown) [Compound 103, N-[2-amino-5-(2-thienyl)phenyl]-4-(cyclopropylsulfonimidoyl)benzamide]
< 0.1 µM	> 2 µM	Cc1ccc(-c2ccc(N)c(NC(=O)c3ccc(S(C)(=N)=O)cc3)c2)cc1 (stereo not shown) [Compound 136, N-[2-amino-5-(p-tolyl)phenyl]-4-(methylsulfonimidoyl)benzamide]
< 0.1 µM	0.5 to 2 µM	N=S(=O)(c1ccc(C(=O)Nc2cc(-c3ccc(F)cc3)ccc2N)cn1)C1CC1 (stereo not shown) [Compound 179, N-[2-amino-5-(4-fluorophenyl)phenyl]-6-(cyclopropylsulfonimidoyl)pyridine-3-carboxamide]
< 0.1 µM	0.5 to 2 µM	N=S(=O)(c1ccc(F)cc1)c1ccc(C(=O)Nc2cc(-c3ccc(F)cc3)ccc2N)cc1 (stereo not shown) [Compound 214, N-[2-amino-5-(4-fluorophenyl)phenyl]-4-[(4-fluorophenyl)sulfonimidoyl]benzamide]
< 0.1 µM	0.5 to 2 µM	C[S@](=N)(=O)c1ccc(C(=O)Nc2cc(-c3cccs3)ccc2N)cc1 (single isomer, unassigned) [Compound 106]
< 0.1 µM	0.1 to 0.5 µM	CS(=N)(=O)c1ccc(C(=O)Nc2cc(-c3cccs3)ccc2N)nn1 (stereo not shown) [Compound 124, N-[2-amino-5-(2-thienyl)phenyl]-6-(methylsulfonimidoyl)pyridazine-3-carboxamide]
< 0.1 µM	> 2 µM	N=S(=O)(c1ccc(C(=O)Nc2cc(-c3ccc(F)cc3)ccc2N)cc1)c1ccc(C(F)(F)F)nc1 (stereo not shown) [Compound 205, N-[2-amino-5-(4-fluorophenyl)phenyl]-4-[[6-(trifluoromethyl)-3-pyridyl]sulfonimidoyl]benzamide]
< 0.1 µM	> 2 µM	N#Cc1cncc(S(=N)(=O)c2ccc(C(=O)Nc3cc(-c4ccc(F)cc4)ccc3N)cc2)c1 (stereo not shown) [Compound 232, N-(4-amino-4′-fluoro-[1,1′-biphenyl]-3-yl)-4-(5-cyanopyridine-3-sulfonimidoyl)benzamide]
< 0.1 µM	0.5 to 2 µM	N=S(=O)(c1ccc(C(=O)Nc2cc(-c3ccc(F)cc3)ccc2N)cc1)C(F)(F)F (stereo not shown) [Compound 177, N-[2-amino-5-(4-fluorophenyl)phenyl]-4-(trifluoromethylsulfonimidoyl)benzamide]
< 0.1 µM	> 2 µM	CS(=N)(=O)c1ccc(C(=O)Nc2cc(-c3ccncc3)ccc2N)cc1 (stereo not shown) [Compound 108, N-[2-amino-5-(4-pyridyl)phenyl]-4-(methylsulfonimidoyl)benzamide]
< 0.1 µM	> 2 µM	N=S(=O)(c1ccc(C(=O)Nc2cc(-c3ccc(F)cc3)ccc2N)cc1)c1cnc(O)nc1 (stereo not shown) [Compound 234, N-[2-amino-5-(4-fluorophenyl)phenyl]-4-[(2-hydroxypyrimidin-5-yl)sulfonimidoyl]benzamide]
> 2 µM	> 2 µM	CC(=O)c1ccc(-c2ccc(N)c(NC(=O)c3ccc(S(C)(=N)=O)cc3)c2)s1 (stereo not shown) [Compound 241, N-[5-(5-acetyl-2-thienyl)-2-amino-phenyl]-4-(methylsulfonimidoyl)benzamide]
< 0.1 µM	> 2 µM	Nc1ccc(-c2ccc(F)cc2)cc1NC(=O)c1ccc([S@]2(=O)=N[C@@H](c3ccccc3)CC2)cc1 (racemic) [Compound 196, rac-N-(4-amino-4′-fluoro-[1,1′-biphenyl]-3-yl)-4-((1S,3R)-1-oxido-3-phenyl-4,5-dihydro-3H-1λ^6-isothiazol-1-yl)benzamide]
< 0.1 µM	0.5 to 2 µM	CS(=N)(=O)Cc1ccc(C(=O)Nc2cc(-c3ccc(F)cc3)ccc2N)cc1 (stereo not shown) [Compound 162, N-[2-amino-5-(4-fluorophenyl)phenyl]-4-[(methylsulfonimidoyl)methyl]benzamide]
< 0.1 µM	0.5 to 2 µM	CS(=N)(=O)c1ccc(C(=O)Nc2cc(-c3cccs3)ccc2N)nc1 (stereo not shown) [Compound 113, N-[2-amino-5-(2-thienyl)phenyl]-5-(methylsulfonimidoyl)pyridine-2-carboxamide]

Compound	IC50 (Recombinant HDAC1)	IC50 (HDAC3/NCor2)
CC(C)(C)OC(=O)N=S(=O)(c1ccc(C(=O)Nc2cc(-c3cccs3)ccc2NC(=O)OC(C)(C)C)cc1)C1CC1 (stereo not shown) [Compound 112, tert-butyl N-[[4-[[2-(tert-butoxycarbonylamino)-5-(2-thienyl)phenyl]carbamoyl]phenyl]-cyclopropyl-oxo-sulfanylidene]carbamate]	> 2 µM	> 2 µM
